Measurements from US20020137929A1, “1 - (3-heterocyclylphenyl) isothiourea, -isourea, -guanidine and -amidine herbicidal agents” (Intellectual Property Department, BASF Aktiengesellschaft, priority 1998, published 2002).

Columns and labels:
ECHCG (Barnyardgrass) [1] = experiment: Postemergence herbicidal evaluation; assay type: in vivo, Echinochloa crus-galli; conditions: postemergence
Summary of the method: (§1)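 First, seedlings were raised for around two weeks. Next, test material in 50/50 acetone/water containing 0.5% TWEEN 20 was sprayed through a nozzle at 40 psi, equivalent to about 0.0156–0.500 kg/ha. Finally, after 4–5 weeks in the greenhouse, plants were rated 0–9.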

ECHCG (Barnyardgrass) [2] = experiment: Preemergence herbicidal evaluation; assay type: in vivo, Echinochloa crus-galli; conditions: rated 4-5 weeks after treatment
Summary of the method: (§2)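 Scores (0–9) reflect visual comparison with control plants for stand, vigor, malformation, size and chlorosis. Compound was applied to the soil after sowing, before emergence, as an aqueous acetone spray (about 0.0156–0.500 kg/ha), and cups were kept in a greenhouse for 4–5 weeks.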

ABUTH (Velvetleaf) [3] = experiment: Postemergence herbicidal evaluation; assay type: in vivo, Abutilon theophrasti; conditions: postemergence
Summary of the method: as §1

[4] = test system: IPOHE (Morningglory, Ivyleaf); experiment: Preemergence herbicidal evaluation; assay type: in vivo, Ipomoea hederacea; conditions: rated 4-5 weeks after treatment
Summary of the method: as §2

[5] = test system: TRZAWR (Wheat, Winter, cv Riband); experiment: Preemergence herbicidal evaluation; assay type: in vivo, Triticum aestivum; conditions: rated 4-5 weeks after treatment
Summary of the method: as §2

ZEAMX (Corn, Field) [6] = experiment: Postemergence herbicidal evaluation; assay type: in vivo, Zea mays; conditions: postemergence
Summary of the method: as §1

CASOB (Sicklepod) = experiment: Preemergence herbicidal evaluation; assay type: in vivo, Cassia obtusifolia; conditions: rated 4-5 weeks after treatment
Summary of the method: as §2

ZEAMX (Corn, Field) [7] = experiment: Preemergence herbicidal evaluation; assay type: in vivo, Zea mays; conditions: rated 4-5 weeks after treatment
Summary of the method: as §2

CYPIR (Rice Flatsedge) = experiment: Postemergence weed control under flooded paddy conditions; assay type: in vivo, Cyperus iria; conditions: postemergence weeds, rated 3 to 4 weeks after treatment
Summary of the method: (§3)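 Containers holding 3–5 cm weeds and rice at 1.5–2.5 leaves are flooded to 1.5–3 cm above soil. Compound in 50/50 v/v aqueous/acetone is then added directly to the water, about 0.0313–0.500 kg/ha. Plants are kept in the greenhouse and rated 0–9 visually at 3–4 weeks.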

[8] = test system: IPOHE (Morningglory, Ivyleaf); experiment: Postemergence herbicidal evaluation; assay type: in vivo, Ipomoea hederacea; conditions: postemergence
Summary of the method: as §1

SETVI (Foxtail, Green) = experiment: Postemergence herbicidal evaluation; assay type: in vivo, Setaria viridis; conditions: postemergence
Summary of the method: as §1

ABUTH (Velvetleaf) [9] = experiment: Preemergence herbicidal evaluation; assay type: in vivo, Abutilon theophrasti; conditions: rated 4-5 weeks after treatment
Summary of the method: as §2

[10] = test system: CHEAL (Lambsquarters, Common); experiment: Postemergence herbicidal evaluation; assay type: in vivo, Chenopodium album; conditions: postemergence
Summary of the method: as §1

[11] = test system: CHEAL (Lambsquarters, Common); experiment: Preemergence herbicidal evaluation; assay type: in vivo, Chenopodium album; conditions: rated 4-5 weeks after treatment
Summary of the method: as §2

CYPSE (Flatsedge) = experiment: Postemergence weed control under flooded paddy conditions; assay type: in vivo, Cyperus serotinus; conditions: postemergence weeds, rated 3 to 4 weeks after treatment
Summary of the method: as §3

ORYSAT (Rice, Tebonnet) = experiment: Postemergence herbicidal evaluation; assay type: in vivo, Oryza sativa, (L.) Tebonnet; conditions: postemergence
Summary of the method: as §1

[12] = test system: GLXMAW (Soybean, Williams); experiment: Preemergence herbicidal evaluation; assay type: in vivo, Glycine max, (L.) Merr. cv Williams; conditions: rated 4-5 weeks after treatment
Summary of the method: as §2

`CC(C)S(=O)(=O)NC(=O)CC1SC(=Nc2cc(-n3c(=O)cc(C(F)(F)F)n(C)c3=O)c(F)cc2Cl)N(C)C1=O` (stereo not drawn) [Compound 119, 2-{{2-Chloro-5-[3,6-dihydro-3-methyl-2,6-dioxo-4-(trifluoromethyl)-1(2H)-pyrimidinyl]-4-fluorophenyl}imino}-N-(isopropylsulfonyl)-3-methyl-4-oxo-5-thiazolidineacetamide] was tested, and the “Herbicidal rating ECHCG” value (ECHCG (Barnyardgrass) [1]; rate 0.0156 kg/ha) was 0.0, the “Herbicidal rating ECHCG” value (ECHCG (Barnyardgrass) [1]; rate 0.0313 kg/ha) was 0.0 and the “Herbicidal rating ECHCG” value (ECHCG (Barnyardgrass) [1]; rate 0.0625 kg/ha) was 1.0. For the same molecule, the “Preemergence herbicidal rating ECHCG” value (ECHCG (Barnyardgrass) [2]; rate 0.0156 kg/ha) was 0.0, the “Preemergence herbicidal rating ECHCG” value (ECHCG (Barnyardgrass) [2]; rate 0.0313 kg/ha) was 0.0 and the “Preemergence herbicidal rating ECHCG” value (ECHCG (Barnyardgrass) [2]; rate 0.0625 kg/ha) was 0.0. For the same molecule, the “Preemergence herbicidal rating ECHCG” value (ECHCG (Barnyardgrass) [2]; rate 0.1250 kg/ha) was 2.0, the “Preemergence herbicidal rating ECHCG” value (ECHCG (Barnyardgrass) [2]; rate 0.2500 kg/ha) was 2.0 and the “Herbicidal rating ABUTH” value (ABUTH (Velvetleaf) [3]; rate 0.0156 kg/ha) was 9.0. The “Herbicidal rating ABUTH” value (ABUTH (Velvetleaf) [3]; rate 0.0313 kg/ha) was 9.0, the “Herbicidal rating ABUTH” value (ABUTH (Velvetleaf) [3]; rate 0.0625 kg/ha) was 9.0 and the “Preemergence herbicidal rating IPOHE” value ([4]; rate 0.0156 kg/ha) was 0.0. The “Preemergence herbicidal rating IPOHE” value ([4]; rate 0.0313 kg/ha) was 0.0, the “Preemergence herbicidal rating IPOHE” value ([4]; rate 0.0625 kg/ha) was 0.0 and the “Preemergence herbicidal rating IPOHE” value ([4]; rate 0.1250 kg/ha) was 9.0. The “Preemergence herbicidal rating IPOHE” value ([4]; rate 0.2500 kg/ha) was 9.0, the “Preemergence herbicidal rating TRZAWR” value ([5]; rate 0.0156 kg/ha) was 0.0 and the “Preemergence herbicidal rating TRZAWR” value ([5]; rate 0.0313 kg/ha) was 0.0. The “Preemergence herbicidal rating TRZAWR” value ([5]; rate 0.0625 kg/ha) was 0.0, the “Preemergence herbicidal rating TRZAWR” value ([5]; rate 0.1250 kg/ha) was 0.0 and the “Preemergence herbicidal rating TRZAWR” value ([5]; rate 0.2500 kg/ha) was 0.0. The “Herbicidal rating ZEAMX” value (ZEAMX (Corn, Field) [6]; rate 0.0156 kg/ha) was 4.5, the “Herbicidal rating ZEAMX” value (ZEAMX (Corn, Field) [6]; rate 0.0313 kg/ha) was 5.5 and the “Herbicidal rating ZEAMX” value (ZEAMX (Corn, Field) [6]; rate 0.0625 kg/ha) was 6.0. The “Preemergence herbicidal rating CASOB” value (CASOB (Sicklepod); rate 0.0156 kg/ha) was 0.0, the “Preemergence herbicidal rating CASOB” value (CASOB (Sicklepod); rate 0.0313 kg/ha) was 0.0 and the “Preemergence herbicidal rating CASOB” value (CASOB (Sicklepod); rate 0.0625 kg/ha) was 0.0. The “Preemergence herbicidal rating CASOB” value (CASOB (Sicklepod); rate 0.2500 kg/ha) was 3.0, the “Preemergence herbicidal rating ZEAMX” value (ZEAMX (Corn, Field) [7]; rate 0.0156 kg/ha) was 0.0 and the “Preemergence herbicidal rating ZEAMX” value (ZEAMX (Corn, Field) [7]; rate 0.0313 kg/ha) was 0.0. For the same molecule, the “Preemergence herbicidal rating ZEAMX” value (ZEAMX (Corn, Field) [7]; rate 0.0625 kg/ha) was 0.0, the “Preemergence herbicidal rating ZEAMX” value (ZEAMX (Corn, Field) [7]; rate 0.1250 kg/ha) was 0.0 and the “Preemergence herbicidal rating ZEAMX” value (ZEAMX (Corn, Field) [7]; rate 0.2500 kg/ha) was 1.0. For the same molecule, the “Herbicidal rating CYPIR” value (CYPIR (Rice Flatsedge); Rate 0.0313 kg/ha) was 2.0, the “Herbicidal rating CYPIR” value (CYPIR (Rice Flatsedge); Rate 0.1250 kg/ha) was 6.0 and the “Herbicidal rating CYPIR” value (CYPIR (Rice Flatsedge); Rate 0.2500 kg/ha) was 9.0. For the same molecule, the “Herbicidal rating IPOHE” value ([8]; rate 0.0156 kg/ha) was 9.0, the “Herbicidal rating IPOHE” value ([8]; rate 0.0313 kg/ha) was 9.0 and the “Herbicidal rating IPOHE” value ([8]; rate 0.0625 kg/ha) was 9.0. The “Herbicidal rating SETVI” value (SETVI (Foxtail, Green); rate 0.0156 kg/ha) was 3.0, the “Herbicidal rating SETVI” value (SETVI (Foxtail, Green); rate 0.0313 kg/ha) was 9.0 and the “Herbicidal rating SETVI” value (SETVI (Foxtail, Green); rate 0.0625 kg/ha) was 9.0. For the same molecule, the “Preemergence herbicidal rating ABUTH” value (ABUTH (Velvetleaf) [9]; rate 0.0156 kg/ha) was 0.0, the “Preemergence herbicidal rating ABUTH” value (ABUTH (Velvetleaf) [9]; rate 0.0313 kg/ha) was 3.0 and the “Preemergence herbicidal rating ABUTH” value (ABUTH (Velvetleaf) [9]; rate 0.0625 kg/ha) was 4.0. The “Preemergence herbicidal rating ABUTH” value (ABUTH (Velvetleaf) [9]; rate 0.1250 kg/ha) was 9.0, the “Preemergence herbicidal rating ABUTH” value (ABUTH (Velvetleaf) [9]; rate 0.2500 kg/ha) was 9.0 and the “Herbicidal rating CHEAL” value ([10]; rate 0.0156 kg/ha) was 9.0. For the same molecule, the “Herbicidal rating CHEAL” value ([10]; rate 0.0313 kg/ha) was 9.0, the “Herbicidal rating CHEAL” value ([10]; rate 0.0625 kg/ha) was 9.0 and the “Preemergence herbicidal rating CHEAL” value ([11]; rate 0.0156 kg/ha) was 9.0. The “Preemergence herbicidal rating CHEAL” value ([11]; rate 0.0313 kg/ha) was 9.0, the “Preemergence herbicidal rating CHEAL” value ([11]; rate 0.0625 kg/ha) was 9.0 and the “Preemergence herbicidal rating CHEAL” value ([11]; rate 0.1250 kg/ha) was 9.0. For the same molecule, the “Preemergence herbicidal rating CHEAL” value ([11]; rate 0.2500 kg/ha) was 9.0, the “Herbicidal rating CYPSE” value (CYPSE (Flatsedge); Rate 0.0313 kg/ha) was 0.0 and the “Herbicidal rating CYPSE” value (CYPSE (Flatsedge); Rate 0.0625 kg/ha) was 0.0. For the same molecule, the “Herbicidal rating CYPSE” value (CYPSE (Flatsedge); Rate 0.1250 kg/ha) was 0.0, the “Herbicidal rating ORYSAT” value (ORYSAT (Rice, Tebonnet); rate 0.0156 kg/ha) was 1.5 and the “Herbicidal rating ORYSAT” value (ORYSAT (Rice, Tebonnet); rate 0.0313 kg/ha) was 2.0. The “Herbicidal rating ORYSAT” value (ORYSAT (Rice, Tebonnet); rate 0.0625 kg/ha) was 3.0, the “Preemergence herbicidal rating GLXMAW” value ([12]; rate 0.0156 kg/ha) was 0.0 and the “Preemergence herbicidal rating GLXMAW” value ([12]; rate 0.0313 kg/ha) was 0.0. For the same molecule, the “Preemergence herbicidal rating GLXMAW” value ([12]; rate 0.0625 kg/ha) was 0.0, the “Preemergence herbicidal rating GLXMAW” value ([12]; rate 0.1250 kg/ha) was 1.0 and the “Preemergence herbicidal rating GLXMAW” value ([12]; rate 0.2500 kg/ha) was 2.0.
